Reference: patent US7226922B2 (dated 2007)

- melting point: 164 to 166 °C
SMILES: Cc1cnn2c(-c3cccc(-c4ccccc4C#N)c3)cnc2c1
